Some test systems named below: UACC-257; HCT-15; Hs-578T; LOX IMVI; OVCAR-5; A549; SR; CAKI-1; TK-10; K562; HT-29; U-251; EKVX; NCI-H522; SNB-19; MOLT-4; NCI/ADR-RES; OVCAR-4; T47D.
Holding throughout (test): NCI tumour cell line growth inhibition, 48 h

The structures appear in SMILES notation.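 96-well plates; 48 h exposure; 5 concentrations. Endpoints by linear interpolation between flanking doses. Not reached: highest tested concentration assigned. Here, GI50 denotes the concentration required for 50% inhibition of growth.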 The source made the active and inactive calls. Cut-off read from the data, not from the text of the source: active = GI50 up to about 1.1 µM and inactive = higher.

For the compound `Cc1cccc2c(=O)c3c(O)cc4c(c3n(C)c12)C=CC(C)(C)O4`, the GI50 with UACC-257 is 60.1 µM (inactive); with HCT-15, 18.7 µM; with Hs-578T, 39.4 µM (inactive); with LOX IMVI, 40.3 µM (inactive); in the test with OVCAR-5, 59.3 µM (inactive); in the test on A549 it was 77.6 µM (inactive). The GI50 is 10.4 µM (inactive) in the test with SR; > 100 µM (inactive) in the test with CAKI-1; > 100 µM (inactive) in the test on TK-10; 11.2 µM (inactive) in the test with K562; 4.63 µM (inactive) in the test with HT-29; > 100 µM (inactive) in the test with U-251. The GI50 is 25.6 µM (inactive) with EKVX; > 100 µM (inactive) in the test on NCI-H522; > 100 µM (inactive) in the test on SNB-19; 29.1 µM (inactive) in the test on MOLT-4; 31.8 µM (inactive) with NCI/ADR-RES; 43.9 µM (inactive) with OVCAR-4.
For the compound `NNC(=O)Cn1ccnn1`, the GI50 with UACC-257 is > 100 µM (inactive); in the test with HCT-15, greater than 100 µM; in the test with LOX IMVI, > 100 µM (inactive); with OVCAR-5, > 100 µM (inactive); in the test on A549 it was > 100 µM (inactive); in the test with SR it was > 100 µM (inactive). Besides, the GI50 in the test with CAKI-1, with TK-10, in the test with K562, with HT-29, in the test on U-251 and with EKVX was > 100 µM (inactive) each time. Further, the GI50 with NCI-H522, in the test on SNB-19, in the test with MOLT-4 and in the test on NCI/ADR-RES was > 100 µM (inactive) throughout.
In the case of `O=C1CCCCCCCCCCC1CN1CCOCC1` (centres undefined), the GI50 was > 100 µM (inactive) in the test with UACC-257; greater than 100 µM in the test on HCT-15; 30.3 µM (inactive) with Hs-578T; > 100 µM (inactive) with OVCAR-5; > 100 µM (inactive) in the test with A549; > 100 µM (inactive) with SR. Also, the GI50 with TK-10, in the test on K562, with U-251, with EKVX, with NCI-H522 and in the test with SNB-19 was > 100 µM (inactive) each time. In addition, the GI50 is > 100 µM (inactive) in the test on T47D, 66.1 µM (inactive) in the test with MOLT-4 and > 100 µM (inactive) in the test with OVCAR-4.
As to `O=C1Cc2c([nH]c3c(Cl)cccc23)-c2ccccc2N1`, the GI50 with HCT-15 is greater than 100 µM; in the test with Hs-578T, 87.3 µM (inactive); in the test with LOX IMVI it was > 100 µM (inactive); in the test with OVCAR-5, > 100 µM (inactive); in the test with A549, > 100 µM (inactive); with SR it was > 100 µM (inactive). Moreover, the GI50 with TK-10, with K562, in the test with HT-29, in the test on U-251, with NCI-H522 and in the test with SNB-19 was > 100 µM (inactive) each time. Also, the GI50 in the test with T47D, in the test with MOLT-4 and in the test with OVCAR-4 was > 100 µM (inactive) throughout.
As to `CN(C)c1ccc(/C=N/N=C2\C(=O)Nc3c(Cl)cc(Cl)cc32)cc1`, the GI50 in the test with UACC-257 is > 100 µM (inactive); in the test on HCT-15 it was 32.4 µM; in the test with Hs-578T, 24.7 µM (inactive); in the test with LOX IMVI it was 25.6 µM (inactive); with OVCAR-5, > 100 µM (inactive); in the test with A549, 41.9 µM (inactive). The GI50 was 6.46 µM (inactive) in the test with SR; 55.8 µM (inactive) in the test on CAKI-1; 94.8 µM (inactive) with TK-10; 20.6 µM (inactive) with K562; 26.1 µM (inactive) with HT-29; 79.3 µM (inactive) in the test with U-251. For the same compound, the GI50 in the test on EKVX is 3.41 µM (inactive); with SNB-19 it was > 100 µM (inactive); in the test with MOLT-4, 16.4 µM (inactive); in the test with NCI/ADR-RES, 20.2 µM (inactive); in the test with OVCAR-4 it was > 100 µM (inactive).
Turning to `CCOC(=O)C(=Cc1ccccc1Br)C(=O)OCC`, the GI50 was 3.58 µM (inactive) with UACC-257; 1.67 µM in the test with HCT-15; 3.4 µM (inactive) in the test with Hs-578T; 0.695 µM (active) in the test on LOX IMVI; 6.5 µM (inactive) with OVCAR-5; 4 µM (inactive) in the test with A549. Besides, the GI50 in the test on SR was 0.208 µM (active); with CAKI-1, 2.53 µM (inactive); in the test with TK-10, 3.47 µM (inactive); in the test on K562 it was 0.656 µM (active); in the test on HT-29 it was 3.36 µM (inactive); with U-251 it was 1.66 µM (inactive). Further, the GI50 is 4.18 µM (inactive) in the test with EKVX; 1.64 µM (inactive) in the test with NCI-H522; 2.53 µM (inactive) in the test with SNB-19; 0.32 µM (active) in the test with MOLT-4; 4.65 µM (inactive) with NCI/ADR-RES; 4.09 µM (inactive) in the test with OVCAR-4.
As to `CC1(C)C(c2ccccc2)=NN(O)c2ccccc21`, the GI50 is > 100 µM (inactive) in the test with UACC-257; greater than 100 µM in the test with HCT-15; > 100 µM (inactive) in the test with OVCAR-5; > 100 µM (inactive) with A549; > 100 µM (inactive) in the test with CAKI-1; > 100 µM (inactive) in the test with TK-10. The GI50 in the test with K562, with HT-29, in the test on U-251, with EKVX, in the test with NCI-H522 and in the test with SNB-19 was > 100 µM (inactive) each time. Further, the GI50 in the test with MOLT-4 and in the test on OVCAR-4 was > 100 µM (inactive) throughout.
As to `O=C(NC(=S)NC(=O)c1cc(O)c(O)c(O)c1)c1cc(O)c(O)c(O)c1`, the GI50 was 22.3 µM (inactive) in the test with UACC-257; 23.9 µM in the test with HCT-15; 12.8 µM (inactive) with LOX IMVI; 27 µM (inactive) in the test on OVCAR-5; 37.1 µM (inactive) with A549; > 100 µM (inactive) with SR. Moreover, the GI50 in the test with CAKI-1 was 21.1 µM (inactive); with TK-10 it was 28.4 µM (inactive); in the test on K562 it was 8.34 µM (inactive); in the test with HT-29, 25.9 µM (inactive); in the test with U-251 it was 27 µM (inactive); with NCI-H522, 22.7 µM (inactive). In addition, the GI50 is 24.2 µM (inactive) in the test with SNB-19, > 10 µM (inactive) with MOLT-4, 23.4 µM (inactive) in the test with NCI/ADR-RES and 20.4 µM (inactive) with OVCAR-4.
Regarding `C=CCCC(CCC=C)(C(=O)O)C(=O)O`, the GI50 was > 100 µM (inactive) with UACC-257; greater than 100 µM in the test with HCT-15; > 100 µM (inactive) in the test with Hs-578T; > 100 µM (inactive) in the test on LOX IMVI; > 100 µM (inactive) with OVCAR-5; > 100 µM (inactive) in the test with A549. The GI50 in the test with SR, in the test on TK-10, with K562, with HT-29, with U-251 and in the test on EKVX was > 100 µM (inactive) in each case. The GI50 in the test with NCI-H522, in the test with SNB-19, in the test on MOLT-4 and with NCI/ADR-RES was > 100 µM (inactive) in each case.
`NNC(=O)c1ccc(-n2nnc(C(=O)NN)c2C(=O)NN)cc1`: the GI50 in the test on UACC-257 is > 100 µM (inactive); in the test on HCT-15, greater than 100 µM; with LOX IMVI, > 100 µM (inactive); with OVCAR-5, > 100 µM (inactive); in the test on A549, > 100 µM (inactive); with SR, > 100 µM (inactive). Moreover, the GI50 in the test with CAKI-1, in the test on TK-10, in the test with K562, with HT-29, in the test with U-251 and in the test with EKVX was > 100 µM (inactive) in each case. In addition, the GI50 in the test with SNB-19, with MOLT-4, in the test on NCI/ADR-RES and in the test on OVCAR-4 was > 100 µM (inactive) throughout.
For `O=S1(=O)C(c2ccccc2)=C(O)c2ccccc21`, the GI50 in the test on UACC-257 is > 100 µM (inactive); with HCT-15 it was greater than 100 µM; with Hs-578T, > 100 µM (inactive); in the test on LOX IMVI it was > 100 µM (inactive); in the test with OVCAR-5, > 100 µM (inactive); with A549 it was > 100 µM (inactive). Also, the GI50 in the test on TK-10, in the test with K562, with HT-29, in the test on U-251, in the test with EKVX and with NCI-H522 was > 100 µM (inactive) each time. In addition, the GI50 in the test with SNB-19, with T47D, with MOLT-4, in the test with NCI/ADR-RES and with OVCAR-4 was > 100 µM (inactive) in each case.
Take `CN1N=C2NCCNC3=NN(C)/C(=N/CC/N=C/1S2)S3`: the GI50 in the test with UACC-257 was > 100 µM (inactive); in the test with HCT-15 it was greater than 100 µM; in the test with LOX IMVI, > 100 µM (inactive); with OVCAR-5, > 100 µM (inactive); in the test on A549, > 100 µM (inactive); in the test with SR, > 100 µM (inactive). Also, the GI50 with K562, with HT-29, in the test with U-251, in the test with EKVX, in the test with NCI-H522 and in the test with SNB-19 was > 100 µM (inactive) in each case. Moreover, the GI50 with MOLT-4 and in the test on OVCAR-4 was > 100 µM (inactive) each time.
With `Cc1ccc(S(=O)(=O)OC2CC(C(C)(C)C)CCC2c2ccccc2)cc1` (centres undefined), the GI50 is 29 µM (inactive) with UACC-257; greater than 100 µM in the test on HCT-15; > 100 µM (inactive) with LOX IMVI; > 100 µM (inactive) with OVCAR-5; 40.6 µM (inactive) with A549; 23.6 µM (inactive) with SR. In addition, the GI50 in the test on CAKI-1 was 66.1 µM (inactive); in the test with TK-10, > 100 µM (inactive); with K562, 53.5 µM (inactive); in the test with HT-29, 32.1 µM (inactive); in the test with U-251, 50.1 µM (inactive); with EKVX it was > 100 µM (inactive). In addition, the GI50 is 86.7 µM (inactive) in the test with SNB-19; 53.7 µM (inactive) in the test on T47D; 44.6 µM (inactive) in the test with MOLT-4; > 100 µM (inactive) with NCI/ADR-RES; 34.9 µM (inactive) in the test on OVCAR-4.

Values taken from ChEMBL document CHEMBL1201862, “PubChem BioAssay data set” (2004).
